Results reported in US10947196B2, “Beta adrenergic agonist and methods of using the same” (CURASEN THERAPEUTICS, INC., priority 2019, dated 2021).

Target: β2 adrenergic receptor (Homo sapiens (Human), UniProt P07550)
Test: cAMP Gs dynamic HTRF assay, β2 expressing CHO cells
Assay type: cell-based
Conditions: B2-AR; CHO-K1 (HitHunter); read-out: Average pEC50 [Receptor subtype: B2-AR; Cell type: CHO-K1 (HitHunter)] (converted)
Summary of the method: (§1)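 Intracellular cAMP quantified by Eu-donor/d2-acceptor HTRF after 30 min compound exposure at 37° C in stimulation buffer with IBMX. Concentrations ran 10 μM top, 5-fold steps, 10 points. Cell lines: 1321N1 astrocytoma and CHO expressing β1 or β2; EC50 via four-parameter fit, relative efficacy against isoproterenol.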

Chain of β2 adrenergic receptor (P07550 whole entry, species assumed): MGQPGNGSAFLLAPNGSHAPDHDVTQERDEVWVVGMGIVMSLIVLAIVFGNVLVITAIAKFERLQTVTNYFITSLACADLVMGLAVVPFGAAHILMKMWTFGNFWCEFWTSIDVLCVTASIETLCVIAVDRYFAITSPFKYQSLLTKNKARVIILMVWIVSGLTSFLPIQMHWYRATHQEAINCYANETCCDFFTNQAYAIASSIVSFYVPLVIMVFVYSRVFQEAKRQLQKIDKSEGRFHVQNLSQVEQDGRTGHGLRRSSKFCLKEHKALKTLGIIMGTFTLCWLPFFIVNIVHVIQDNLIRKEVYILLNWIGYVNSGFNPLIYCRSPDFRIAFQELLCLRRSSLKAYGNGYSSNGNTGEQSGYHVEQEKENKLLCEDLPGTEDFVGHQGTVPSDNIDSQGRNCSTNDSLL

Structure (SMILES) | EC50 [nM]
CC(C)(C)NC[C@H](O)c1cccc(-n2cccc2)n1 [Compound 03-123] | < 10
CC(C)Nc1cccc([C@@H](O)CNC(C)(C)C)n1 [Compound 03-192] | < 10
COc1ccc(C[C@@H](C)NC[C@H](O)c2ccc(C)nc2)cc1 [Compound 03-249] | < 10
CC(C)(C)NC[C@H](O)c1cccnc1OC1CC1 [Compound 03-71] | 10 to 100
Cc1ccc([C@@H](O)CNC(C)(C)C)cn1 [Compound 03-248] | 10 to 100
C#Cc1cccc([C@H](O)CNC(C)(C)C)n1 [Compound 03-238] | 10 to 100
CC(C)(C)NC[C@H](O)c1cccc(Nc2ccccc2)n1 [Compound 03-193] | < 10
CC(C)(C)NC[C@H](O)c1cccnc1C1CC1 [Compound 03-54] | 10 to 100
CC(C)(C)NC[C@H](O)c1cccc(Oc2ccccc2)n1 [Compound 03-195] | 10 to 100
CC(C)(C)NC[C@H](O)c1cc(F)cnc1C1CCCC1 [Compound 03-80] | 10 to 100
CC(C)(C)NCC(O)c1cc(C#N)cc(C(F)(F)F)n1 (centres unmarked) [Compound 03-181] | 100 to 1000
CC(C)(C)NC[C@H](O)c1cccnc1OC1CCC1 [Compound 03-72] | < 10
CC(C)(C)NC[C@H](O)c1cccc(NC2CCCC2)n1 [Compound 03-191] | < 10
CC(C)(CO)NC[C@H](O)c1cccc(C#N)n1 [Compound 03-104] | 100 to 1000
CC(C)(C)NC[C@H](O)c1cccc(-n2ccnn2)n1 [Compound 03-102] | 10 to 100
Cc1cccc([C@@H](O)CNC(C)(C)C)n1 [Compound 03-6] | 10 to 100
CC(C)(C)NC[C@H](O)c1cccc(-c2ccc[nH]2)n1 [Compound 03-95] | < 10
COc1ccc(C[C@@H](C)NC[C@H](O)c2cccnc2C)cc1 [Compound 03-66] | < 10
CC(C)(C)NC[C@H](O)c1cccc(NC2CC(F)C2)n1 (some centres unmarked) [Compound 03-272] | < 10
CC(C)(C)NC[C@H](O)c1cccc(NC2CC2)n1 [Compound 03-189] | < 10
CNc1cccc([C@H](O)CNC(C)(C)C)n1 [Compound 03-142] | 100 to 1000

Same assay, conditions: B2-AR; CHO-K cells; read-out: Average EC50 [Receptor subtype: B2-AR; Cell type: CHO-K]

Structure (SMILES) | EC50 [nM]
CC(C)(C)NC[C@H](O)c1cccc(-n2cccc2)n1 [Compound 03-123] | < 10
CC(C)(C)NC[C@H](O)c1cccnc1C1CC1 [Compound 03-54] | 10 to 100
CC(C)(C)NCC(O)c1cc(C#N)cc(C(F)(F)F)n1 (centres unmarked) [Compound 03-181] | 100 to 1000
Cc1cccc([C@@H](O)CNC(C)(C)C)n1 [Compound 03-6] | 10 to 100
CNc1cccc([C@H](O)CNC(C)(C)C)n1 [Compound 03-142] | 100 to 1000

Target: β2 adrenergic receptors in human astrocytoma cells (1321N1) (Homo sapiens (Human), UniProt P07550)
Test: cAMP HTRF assay in human astrocytoma cells (1321N1)
Assay type: cell-based
Conditions: Endogenous receptor; 1321N1 cells
Procedure: cAMP homogeneous time-resolved fluorescence (HTRF). Compound efficacy was determined using the cAMP Gs dynamic HTRF assay (Cisbio, catalog #62AM4PEC) largely following the manufacturer's instructions, also detailed below.
Compound preparation. […] Standard serial dilution curves were 10-point, 5-fold dilutions starting from a highest concentration of 10 μM. […] Assay plates were centrifuged at 500×g for 10 seconds. Compounds and IBMX were prepared at 2× final dose to compensate for addition of cells.
Cell preparation. 1× stimulation buffer, washing PBS (Dulbecco's phosphate-buffered saline, −Mg −Ca; Caisson Labs, catalog #PBL01), assay PBS (Dulbecco's phosphate-buffered saline, +Mg, +Ca; Caisson Labs, catalog #PBL02) and Versene (0.02% EDTA disodium salt solution in PBS without calcium or magnesium; Caisson Labs, catalog #EDL01) were pre-warmed to 37° C. Cells expressing beta-adrenergic receptor were washed in washing PBS to remove growth medium and then released from the surface by incubating with Versene for 5-10 minutes at 37° C. Cells were harvested using assay PBS, counted manually by hemocytometer or by an automated cell counter, pelleted by centrifugation (200×g, 5 minutes) and resuspended in 37° C. 1× stimulation buffer to a final density of 1.5×10^6 cells/mL. 5 μL of the suspended cell solution (7500 cell total) were added to all wells of the 384 well assay plate, the assay plate was covered with an Axygen® plate seal (Corning PCR-SP) and incubated in a humidified 37° C. environment supplemented with 5% CO2 for 30 minutes.
HTRF reagent addition, reading and data analysis. After 30 minutes of cell stimulation with test compound, the assay plates were centrifuged at 500×g for 10 seconds, and incubation was stopped with the addition of 5 μL cAMP-D2 acceptor, diluted 1:21 in detection and lysis buffer 2 (Cisbio 62CL2FDF) was added to all cells. Subsequently, 5 μL Anti-cAMP-Eu Donor, diluted 1:21 in detection and lysis buffer 2, was added to cells. Plates were sealed and reactions gently ‘vortexed’ at 900 rpm on a Heidolph Titramax 1000 for at least 30 minutes at room temperature. Plates were centrifuged again at 500×g for 10 seconds, and HTRF was measured using a Tecan Spark plate reader at 50 flashes per well. […] Potency estimates (EC50) were derived from the four-parameter nonlinear regression of the concentration-effect curve and an estimate of relative efficacy was determined by comparing the magnitude of the test compound HTRF signal window (min−max dose) with the signal window of the full agonist control, isoproterenol.

Chain of β2 adrenergic receptors in human astrocytoma cells (1321N1) (P07550 whole entry): as the sequence (P07550 whole entry, species assumed) above

Structure (SMILES) | Average pEC50 [Receptor subtype: Endogenous; Cell type: 1321N1]
CC(C)(C)NC[C@H](O)c1cccnc1C1CC1 [Compound 03-54] | C (C = <7-6)

Same assay, conditions: Endogenous receptor; 1321N1 cells; read-out: Average EC50 [Receptor subtype: Endogenous; Cell type: 1321N1]

Structure (SMILES) | EC50 [nM]
CC(C)(C)NC[C@H](O)c1cccnc1C1CC1 [Compound 03-54] | 100 to 1000

Same assay, conditions: Endogenous receptor; 1321N1 cells; read-out: Average pEC50 [Receptor subtype: Endogenous; Cell type: 1321N1] (converted)

Structure (SMILES) | EC50 [nM]
CC(C)(C)NC[C@H](O)c1cccc(-n2cccc2)n1 [Compound 03-123] | < 10
CC(C)Nc1cccc([C@@H](O)CNC(C)(C)C)n1 [Compound 03-192] | 10 to 100
COc1ccc(C[C@@H](C)NC[C@H](O)c2ccc(C)nc2)cc1 [Compound 03-249] | < 10
CC(C)(C)NC[C@H](O)c1cccnc1OC1CC1 [Compound 03-71] | 10 to 100
Cc1ccc([C@@H](O)CNC(C)(C)C)cn1 [Compound 03-248] | 10 to 100
C#Cc1cccc([C@H](O)CNC(C)(C)C)n1 [Compound 03-238] | 100 to 1000
CC(C)(C)NC[C@H](O)c1cccc(Nc2ccccc2)n1 [Compound 03-193] | < 10
CC(C)(C)NC[C@H](O)c1cccc(Oc2ccccc2)n1 [Compound 03-195] | 10 to 100
CC(C)(C)NC[C@H](O)c1cc(F)cnc1C1CCCC1 [Compound 03-80] | 100 to 1000
CC(C)(C)NCC(O)c1cc(C#N)cc(C(F)(F)F)n1 (centres unmarked) [Compound 03-181] | 100 to 1000
CC(C)(C)NC[C@H](O)c1cccnc1OC1CCC1 [Compound 03-72] | 10 to 100
CC(C)(C)NC[C@H](O)c1cccc(NC2CCCC2)n1 [Compound 03-191] | < 10
CC(C)(CO)NC[C@H](O)c1cccc(C#N)n1 [Compound 03-104] | 100 to 1000
CC(C)(C)NC[C@H](O)c1cccc(-n2ccnn2)n1 [Compound 03-102] | 10 to 100
Cc1cccc([C@@H](O)CNC(C)(C)C)n1 [Compound 03-6] | 100 to 1000
CC(C)(C)NC[C@H](O)c1cccc(-c2ccc[nH]2)n1 [Compound 03-95] | < 10
COc1ccc(C[C@@H](C)NC[C@H](O)c2cccnc2C)cc1 [Compound 03-66] | 100 to 1000
CC(C)(C)NC[C@H](O)c1cccc(NC2CC(F)C2)n1 (some centres unmarked) [Compound 03-272] | < 10
CC(C)(C)NC[C@H](O)c1cccc(NC2CC2)n1 [Compound 03-189] | 10 to 100
CNc1cccc([C@H](O)CNC(C)(C)C)n1 [Compound 03-142] | > 1000

Target: β1-adrenergic receptor (Homo sapiens (Human), UniProt P08588)
Test: cAMP Gs dynamic HTRF assay, β1 expressing CHO cells
Assay type: cell-based
Conditions: B1-AR; CHO-K1 (HitHunter)
Summary of the method: as §1

Chain of β1-adrenergic receptor (P08588 whole entry, species assumed): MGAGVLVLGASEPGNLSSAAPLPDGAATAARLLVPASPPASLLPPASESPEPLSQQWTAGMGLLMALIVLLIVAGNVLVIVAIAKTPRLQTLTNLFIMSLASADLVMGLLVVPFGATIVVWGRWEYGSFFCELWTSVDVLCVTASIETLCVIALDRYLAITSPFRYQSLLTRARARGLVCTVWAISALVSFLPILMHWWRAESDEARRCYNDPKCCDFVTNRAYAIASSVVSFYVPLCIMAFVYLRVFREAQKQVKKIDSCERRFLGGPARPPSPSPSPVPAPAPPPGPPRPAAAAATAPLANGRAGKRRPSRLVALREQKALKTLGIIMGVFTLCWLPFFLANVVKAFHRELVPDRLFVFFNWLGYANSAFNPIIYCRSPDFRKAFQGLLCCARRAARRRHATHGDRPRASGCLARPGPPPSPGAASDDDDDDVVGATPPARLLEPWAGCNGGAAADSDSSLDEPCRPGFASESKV

Structure (SMILES) | Average pEC50 [Receptor subtype: B1-AR; Cell type: CHO-K1 (HitHunter)]
CC(C)(C)NC[C@H](O)c1cccc(-n2cccc2)n1 [Compound 03-123] | A (A > 8)

Same assay, conditions: B1-AR; CHO-K1 (HitHunter); read-out: Average pEC50 [Receptor subtype: B1-AR; Cell type: CHO-K1 (HitHunter)] (converted)

Structure (SMILES) | EC50 [nM]
CC(C)Nc1cccc([C@@H](O)CNC(C)(C)C)n1 [Compound 03-192] | 10 to 100
COc1ccc(C[C@@H](C)NC[C@H](O)c2ccc(C)nc2)cc1 [Compound 03-249] | < 10
CC(C)(C)NC[C@H](O)c1cccnc1OC1CC1 [Compound 03-71] | 100 to 1000
Cc1ccc([C@@H](O)CNC(C)(C)C)cn1 [Compound 03-248] | 10 to 100
C#Cc1cccc([C@H](O)CNC(C)(C)C)n1 [Compound 03-238] | 100 to 1000
CC(C)(C)NC[C@H](O)c1cccc(Nc2ccccc2)n1 [Compound 03-193] | < 10
CC(C)(C)NC[C@H](O)c1cccnc1C1CC1 [Compound 03-54] | 100 to 1000
CC(C)(C)NC[C@H](O)c1cccc(Oc2ccccc2)n1 [Compound 03-195] | 100 to 1000
CC(C)(C)NC[C@H](O)c1cc(F)cnc1C1CCCC1 [Compound 03-80] | > 1000
CC(C)(C)NCC(O)c1cc(C#N)cc(C(F)(F)F)n1 (centres unmarked) [Compound 03-181] | > 1000
CC(C)(C)NC[C@H](O)c1cccnc1OC1CCC1 [Compound 03-72] | 10 to 100
CC(C)(C)NC[C@H](O)c1cccc(NC2CCCC2)n1 [Compound 03-191] | 10 to 100
CC(C)(CO)NC[C@H](O)c1cccc(C#N)n1 [Compound 03-104] | 100 to 1000
CC(C)(C)NC[C@H](O)c1cccc(-n2ccnn2)n1 [Compound 03-102] | 100 to 1000
Cc1cccc([C@@H](O)CNC(C)(C)C)n1 [Compound 03-6] | 10 to 100
CC(C)(C)NC[C@H](O)c1cccc(-c2ccc[nH]2)n1 [Compound 03-95] | < 10
COc1ccc(C[C@@H](C)NC[C@H](O)c2cccnc2C)cc1 [Compound 03-66] | 10 to 100
CC(C)(C)NC[C@H](O)c1cccc(NC2CC(F)C2)n1 (some centres unmarked) [Compound 03-272] | < 10
CC(C)(C)NC[C@H](O)c1cccc(NC2CC2)n1 [Compound 03-189] | 10 to 100
CNc1cccc([C@H](O)CNC(C)(C)C)n1 [Compound 03-142] | > 1000

Same assay, conditions: B1-AR; CHO-K cells; read-out: Average EC50 [Receptor subtype: B1-AR; Cell type: CHO-K]

Structure (SMILES) | EC50 [nM]
CC(C)(C)NC[C@H](O)c1cccc(-n2cccc2)n1 [Compound 03-123] | < 10
CC(C)(C)NC[C@H](O)c1cccnc1C1CC1 [Compound 03-54] | 100 to 1000
CC(C)(C)NCC(O)c1cc(C#N)cc(C(F)(F)F)n1 (centres unmarked) [Compound 03-181] | > 1000
Cc1cccc([C@@H](O)CNC(C)(C)C)n1 [Compound 03-6] | 10 to 100
CNc1cccc([C@H](O)CNC(C)(C)C)n1 [Compound 03-142] | > 1000
